One assay concerns Mab 64G12. As to the kind of experiment: ELISA binding of peptides to Mab 64G12. The arrangement: species or system mouse. The note with it: biotin-SGSG-peptide on streptavidin plates, peptide 20 μM, antibody 1 μg/ml. The protocol:
Binding of Peptides to Mab 64G12
The 11 mer (SEQ ID no. 2) and a number of modified versions of that polypeptide derived by deletion or substitution were tested for ability to bind Mab 64G12 by ELISA. […]. The peptides were biotinylated at the N-terminus with a spacer sequence SGSG between the peptide and the biotin, i.e. biotin-SGSG-peptide.
ELISA screening for ability to bind Mab 64G12 was carried out using Nunc Maxisorb plates coated with Streptavidin 5 μg/ml, 100 μl/well overnight at 37° C. The plates were then blocked with 200 μl/well of PBS containing 0.1% Tween 20, 1% sodium caseinate (CAST) for 1 hour at 20° C. Peptides were dissolved by adding 50 μl of DMSO and 0.6 ml of 40% acetonitrile to each tube. For peptide coating, 100 μl of PBS, 0.1% Tween 20 (PT) were added to each well, followed by 2 μl of each peptide solution (final peptide concentration 20 μM). After 30 mins, the monoclonal antibody was added at 1 μg/ml in PT for 1 hour at 20° C. The plates were washed and 100 μl/well of a 1/2000 dilution of horseradish peroxidase labeled goat anti-mouse IgG (H+L) in CAST plus 1% sheep serum (CASS) was added for 1 hour at 20° C. After washing, 100 μl of ABTS substrate was distributed to all wells. Absorbance was measured after 10 and 45 mins incubation on a plate reader using dual wavelength ([…]) to correct for background.

The subject of the next assay is IFN-R on Daudi cells. As to the kind of experiment: Inhibition of Type 1-IFN binding to the IFN-R on Daudi cells: 125I-IFN-α2 binding in presence of Mab 64G12 with or without peptide. The following applies: Mab 64G12 2 μg, 125I-labeled human IFN-α2 0.13 nM, 2 hours at 4° C. As to the method: Inhibition of Type 1-IFN Binding to the IFN-R on Daudi Cells.
Cultures of exponentially growing Daudi cells (2 million cells/0.2 ml RPMI 1640 medium with 10% fetal calf serum) were treated with: Mab 64G12 (2 μg), alone or together with: (i) a soluble affinity purified recombinant polypeptide corresponding to amino acids 1 to 427 of the extracellular domain region sequence of the IFNAR1 chain as reported by Uze et al., 1990, Cell, 60, 224-234 (prepared as described in Benoit et al., 1993, J. Immunol., 150, 707-716 and Published International Application WO 92/18626 and purified first on a NI-NTA agarose column (Qiagen) and subsequently eluted with 300 mM imidazole. The eluted partially purified soluble IFNAR1 was then applied to a 5.0 ml 64G12 Mab sepharose column and eluted with 0.1 M glycine, pH 2.8. The eluted IFNAR1 was pure as determined by SDS-PAGE under denaturing conditions) or (ii) the peptide of SEQ ID no. 2 (the 11 mer). This was followed by the addition of ^125I-labeled human IFN-α2 (iodination as described by Mogensen et al., 1981, Int. J. Cancer, 28, 575-582; 90000 cpm, 0.13 nM) and incubation for 2 hours at 4° C. The cells were then washed 3 times with culture medium containing 1% fetal calf serum and the cell pellet counted in a gamma counter.

The test system of assay [1] is anti-IFN-R antibody (34F10). The experiment in a line: Effect of peptide on binding of non-neutralizing anti-IFN-R antibody 34F10 to the IFN-R. The note with it: epitope distant from the ligand binding site.

This is an account of results in patent publication US20070042963A1, “Therapeutic peptides” (Medarex, Inc., priority 2000, published 2007).

For “FSSLKLNVY (Modified peptide from Hu IFNAR1 receptor) [9 mer]”, in the assay on Mab 64G12, the “binding to Mab 64G12 by ELISA” value is listed as “specifically bind”.

As for “KLNVYE (Modified peptide from Hu IFNAR1 receptor) [Peptide 7]”, the “binding to Mab 64G12 by ELISA” value with Mab 64G12 is listed as “only background binding”.

Take “NFSSLKLNVYE (Modified peptide from Hu IFNAR1 receptor) [Peptide 12]”: the “IFN binding to the IFN-R in the presence of Mab 64G12” value with IFN-R on Daudi cells is “restored IFN-binding to a high degree”. For the same substance, the “ability of antibody 34F10 to bind to the IFN-R” value in assay [1] is “does not affect”. The “binding to Mab 64G12 by ELISA” value in the assay on Mab 64G12 is listed as “specifically bind”.
